The values that follow come from patent publication EP0048159A2, “Novel carboxyalkyl peptides and thioethers and ethers of peptides as antihypertensive agents” (UNIVERSITY OF MIAMI, priority 1980, dated 1982).

One data set addresses T1, Human plasma ACE (Homo sapiens, UniProt P12821).
T1 construct: Human plasma ACE was assayed in 0.05 M Hepes buffer, pH 8.0; from tissue; host or cells: human plasma
Nature of the data set: Inhibitory potency in vitro: ACE assay with [3H]hippuryl-His-Leu substrate. Conditions: hippuryl-His-Leu 1 x 10^-4 M, 0.05 M Hepes buffer pH 8.0, 15 minutes at 37°C, read-out: I50. Format: biochemical. Here is the method: The inhibitory potency of several compounds in vitro was measured in the following assay. Human plasma ACE was assayed in 0.05 M Hepes buffer, pH 8.0 containing 0.1 M NaCl and 0.75 M Na2SO4. The substrate employed was hippuryl-His-Leu at a final concentration-of 1 x 10^-4 M, (Km = 2 x 10^-4 M), together with about 130,000 cpm/50 µl of [^3Hlhippuryl-His-Leu (25 Ci/mmole). Enzyme was diluted in the above buffer such that 40 ul of buffered enzyme was capable of hydrolyzing 13% of substrate in a 15 minute incubation at 37°C. To initiate the assay, 40 µl of enzyme and 10 µl of buffer or inhibitor dissolved in buffer were preincubated for two minutes at 37°C. Substrate, 50 µl, was then added to initiate reaction and the solution was incubated for 15 minutes at 37°C. To terminate the reaction, 1 ml of 0:1 M HC1 was added, following which 1 ml of ethyl acetate was added. The mixture was
An aliquot, 500 ul. of the ethyl acetate layer was transferred to a liquid scintillation vial containing 10 ml of Riafluor, trademark New England Nuclear Corporation, Boston, Massachusetts. For determination of I50 values, enzyme activity in the presence of inhibitor at a series of different concentrations was compared to activity in the absence of inhibitor. A plot of log inhibitor concentration versus percent inhibition yielded the I50 value; the concentration of inhibitor required to reduce enzymic activity by 50%.

Data set [1] is described as follows: Loss of activity of aqueous solution on standing under ambient conditions. Conditions: fresh aqueous solution, 1 mg per ml, pH of about 8, standing for as little as 30 minutes. Format: physicochemical. The source says: In vitro study of the mechanism by which SQ14225 and its analogs act to inhibit ACE has been somewhat hampered by the instability of these molecules under ambient conditions.

A further data set concerns Rats. Nature of the data set: Intravenous effectiveness: blood pressure response to angiotensin I in anesthetized rats. Format: in vivo. Conditions: 20 µmole/kg intravenously. The method, then:
Rats (190-290 g body weight) were fasted overnight and then anesthetized with intraperitoneal pentobarbital, 50-60 mg/kg. Tracheostomy was performed and the animals were ventilated mechanically. A cannula was inserted into a femoral vein for injection of angiotensin I, and a second cannula was inserted into a common carotid artery for direct measurement of arterial blood pressure. Heparin, 1,000 units, was injected via the femoral vein to prevent coagulation. Blood pressure was measured with a pressure transducer connected to a polygraph. The rats were injected with […] of angiotensin I in 20 pl of 0.9 g % NaCl; an amount of angiotensin I sufficient to raise mean arterial blood pressure by approximately 40 mm Hg. After the responsiveness of a given rat to angiotensin I was established, the named compound at 20 µmole/kg (drug dissolved in 0.15 ml of H20 plus 10 µl of 1 N NaHC03), was given intravenously. At timed intervals, the effects of 400 ng/kg of angiotensin I on mean arterial blood pressure were tested.

T1 sequence (P12821 30-1232 limits assumed): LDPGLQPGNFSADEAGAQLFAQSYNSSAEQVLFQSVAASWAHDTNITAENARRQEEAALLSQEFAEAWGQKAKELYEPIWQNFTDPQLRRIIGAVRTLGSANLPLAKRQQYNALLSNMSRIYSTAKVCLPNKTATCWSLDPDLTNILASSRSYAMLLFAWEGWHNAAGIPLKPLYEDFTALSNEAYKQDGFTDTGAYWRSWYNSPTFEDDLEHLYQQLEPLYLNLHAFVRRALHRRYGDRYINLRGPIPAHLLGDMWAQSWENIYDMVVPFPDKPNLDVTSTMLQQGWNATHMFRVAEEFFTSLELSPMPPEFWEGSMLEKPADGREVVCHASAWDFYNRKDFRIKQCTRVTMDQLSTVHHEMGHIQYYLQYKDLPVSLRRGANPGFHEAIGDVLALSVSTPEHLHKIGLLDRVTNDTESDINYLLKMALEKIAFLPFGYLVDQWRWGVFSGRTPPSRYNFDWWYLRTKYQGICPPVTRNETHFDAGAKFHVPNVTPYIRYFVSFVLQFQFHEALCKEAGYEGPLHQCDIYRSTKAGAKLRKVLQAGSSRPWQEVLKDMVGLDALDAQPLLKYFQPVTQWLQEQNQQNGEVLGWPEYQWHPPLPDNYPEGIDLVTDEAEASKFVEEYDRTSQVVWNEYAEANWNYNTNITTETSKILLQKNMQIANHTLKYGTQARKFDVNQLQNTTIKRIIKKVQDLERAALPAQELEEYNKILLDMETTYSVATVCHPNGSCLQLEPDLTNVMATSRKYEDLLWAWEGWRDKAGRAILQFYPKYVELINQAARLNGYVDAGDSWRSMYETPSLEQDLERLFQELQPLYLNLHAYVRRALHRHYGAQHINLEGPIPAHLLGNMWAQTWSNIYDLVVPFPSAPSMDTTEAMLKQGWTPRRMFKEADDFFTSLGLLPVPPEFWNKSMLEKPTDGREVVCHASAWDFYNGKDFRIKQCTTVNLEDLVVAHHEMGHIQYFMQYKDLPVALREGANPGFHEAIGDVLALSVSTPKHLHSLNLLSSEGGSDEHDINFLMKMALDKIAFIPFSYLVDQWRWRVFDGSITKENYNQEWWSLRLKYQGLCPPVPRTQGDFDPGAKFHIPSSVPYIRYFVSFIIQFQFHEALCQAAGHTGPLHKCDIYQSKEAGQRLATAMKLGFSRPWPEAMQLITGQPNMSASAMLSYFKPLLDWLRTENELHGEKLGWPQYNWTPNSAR

Turning to `CC(O)CC(SC(C)C(=O)N1CCC[C@H]1C(=O)O)C(=O)O` (stereo partly drawn) [N-[2-(1-carboxy-3-hydroxy-butylthio)-propanoyl]-L-proline], the IC50 on Human plasma ACE was determined as 30 nM. On the same count and under the same terms, as for `CCOC(=O)C(C)N[C@@H](C)C(=O)N1CCC[C@H]1C(=O)O` (stereo partly drawn) [N-(1-ethoxycarbonylethyl)-L-alanyl-L-proline], the figure is 60 nM; as for `CC1CC(SC(C)C(=O)N2CCC[C@H]2C(=O)O)C(=O)O1` (stereo partly drawn) [N-[2-(tetrahydro-5-methyl-2-furanone-3-thio)-propanoyl]-L-proline], 130 nM. With `C[C@H](CS)C(=O)N1CCC[C@H]1C(=O)O` [SQ14225], the “activity of aqueous solution upon standing” value in data set [1] is “substantially less active”. As for `CC(SC[C@@H](C)C(=O)N1CCC[C@H]1C(=O)O)C(=O)O` (stereo partly drawn) [N-[3-(1-carboxyethylthio)-2-D-methylpropanoyl]-L-proline], on Human plasma ACE, the IC50 came out at 1500 nM. Besides, the “Blood Pressure Reponse to 400 ng/kg of Angiotensin I (% of Control)” value is recorded as 62.5 % of Control in the data set on Rats (8 minutes after IV administration), 37.5 % of Control in the data set on Rats (15 minutes after IV administration), 37.5 % of Control in the data set on Rats (21 minutes after IV administration) and 67.5 % of Control with Rats (+2 minutes after IV administration). As for `CC(SC(C)C(=O)N1CCC[C@H]1C(=O)O)C(=O)O` (stereo partly drawn) [N-[2-(1-carboxyethylthio)-propanoyl]-L-proline], the IC50 at Human plasma ACE was found to be 400 nM. The same measure, in the same setting: as for `CC(N[C@@H](C)C(=O)N1CCC[C@H]1C(=O)O)C(=O)O` (stereo partly drawn) [N-(1-carboxyethyl)-L-alanyl-L-proline, reference compound], the figure is 8 nM.
